Results as given in patent publication US10208021B2, “Substituted tetrahydroisoquinoline compounds as factor XIa inhibitors” (BRISTOL-MYERS SQUIBB COMPANY, priority 2011, dated 2019).
Counter-ions that a name gives are not always drawn.

Molecular target: purified human Factor XIa (Homo sapiens (Human), UniProt P03951)
Experiment: Factor XIa chromogenic substrate (S-2366) inhibition assay
Type: biochemical
Protocol: The effectiveness of compounds of the present invention as inhibitors of the coagulation factors XIa, VIIa, IXa, Xa, XIIa, plasma kallikrein or thrombin, can be determined using a relevant purified serine protease, respectively, and an appropriate synthetic substrate. The rate of hydrolysis of the chromogenic or fluorogenic substrate by the relevant serine protease was measured both in the absence and presence of compounds of the present invention. […] A decrease in the rate of absorbance or fluorescence change in the presence of inhibitor is indicative of enzyme inhibition. Such methods are known to one skilled in the art. The results of this assay are expressed as the inhibitory constant, Ki. […] JT Baker or Fisher Scientific). […] Values of Ki were determined by allowing the protease to react with the substrate in the presence of the inhibitor. Reactions were allowed to go for periods of 20-180 minutes (depending on the protease) and the velocities (rate of absorbance or fluorescence change versus time) were measured.

[1] = substrate S-2366, activity ranges, Table A

Sequence of purified human Factor XIa (P03951 388-625): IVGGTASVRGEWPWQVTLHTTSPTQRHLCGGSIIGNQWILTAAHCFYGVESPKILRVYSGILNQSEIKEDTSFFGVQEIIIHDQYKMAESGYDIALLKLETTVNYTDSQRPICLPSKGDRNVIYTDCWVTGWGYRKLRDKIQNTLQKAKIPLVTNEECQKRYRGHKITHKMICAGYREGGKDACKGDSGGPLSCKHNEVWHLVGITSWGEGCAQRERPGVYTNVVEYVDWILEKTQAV
Sequence of purified human Factor XIa (P03951 19-387 partner): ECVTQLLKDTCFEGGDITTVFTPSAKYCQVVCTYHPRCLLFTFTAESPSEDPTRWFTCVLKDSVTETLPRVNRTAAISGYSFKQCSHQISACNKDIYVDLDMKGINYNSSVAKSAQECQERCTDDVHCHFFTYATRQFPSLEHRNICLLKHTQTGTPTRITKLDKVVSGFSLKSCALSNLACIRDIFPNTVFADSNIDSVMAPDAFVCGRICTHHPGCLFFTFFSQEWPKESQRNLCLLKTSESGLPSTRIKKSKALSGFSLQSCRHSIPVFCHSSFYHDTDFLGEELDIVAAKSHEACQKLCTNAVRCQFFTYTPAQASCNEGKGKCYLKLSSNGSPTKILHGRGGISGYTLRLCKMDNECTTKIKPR

SMILES | Ki [1] | Ki (substrate S-2366, Table 1)
CN(C)[C@H]1CCN(c2cccc3c2CCN(C(=O)/C=C/c2c(-n4cnnn4)ccc(Cl)c2F)[C@H]3C(=O)Nc2ccc(C(=O)O)cc2)C1 [Example 208, 4-((R)-2-((E)-3-(3-Chloro-2-fluoro-6-(1H-tetrazol-1-yl)phenyl)acryloyl)-5-((S)-3-(dimethylamino)pyrrolidin-1-yl)-1,2,3,4-tetrahydroisoquinoline-1-carboxamido)benzoic acid, bis-TFA salt] | < 5 nM | 
CCNC(=O)c1ccc(NC(=O)C2c3cccc(N4CCNCC4)c3CCN2C(=O)/C=C/c2cc(Cl)c(F)cc2-n2cnnn2)cc1 (racemic) [Example 71] |  | 492 nM
O=C(OC1CCCC1)c1ccc(NC(=O)C2c3cccc(N4CCC(N5CCCC5)CC4)c3CCN2C(=O)/C=C/c2c(-n3cnnn3)ccc(Cl)c2F)cc1 (racemic) [Example 124] | < 5 nM | 
CC(C)OC(=O)c1ccc(NC(=O)C2c3cccc(N4CCC(N5CCCC5)CC4)c3CCN2C(=O)/C=C/c2c(-n3cnnn3)ccc(Cl)c2F)cc1 (racemic) [Example 122] | < 5 nM | 
CN(C)C(=O)C1CCN(c2cccc3c2CCN(C(=O)C=Cc2c(-n4cnnn4)ccc(Cl)c2F)C3C(=O)Nc2ccc(C(=O)O)cc2)CC1 (stereo not shown) [Example 101] | < 5 nM | 
CC(=O)c1ccc(Cl)c(F)c1C=CC(=O)N1CCc2c(cccc2N2CCC(N3CCCC3)CC2)C1C(=O)Nc1ccc(C(=O)OCc2ccccc2)cc1 (stereo not shown) [Example 171] | 5 to 10 nM | 
O=C(O)c1ccc(NC(=O)[C@@H]2c3cccc(N4CCC(N5CCOCC5)CC4)c3CCN2C(=O)/C=C/c2c(-n3cnnn3)ccc(Cl)c2F)cc1 [Example 139] | < 5 nM | 
CC(=O)Nc1ccc(NC(=O)c2ccc(NC(=O)C3c4cccc(N5CCNCC5)c4CCN3C(=O)/C=C/c3cc(Cl)c(F)cc3-n3cnnn3)cc2)cc1 (racemic) [Example 70] | 100 to 500 nM | 
CCOC(=O)c1ccc(NC(=O)[C@@H]2c3cccc(N4CCN(C)CC4=O)c3CCN2C(=O)/C=C/c2c(-n3cnnn3)ccc(Cl)c2F)cc1 [Example 192, (S,E)-Ethyl 4-(2-(3-(3-chloro-2-fluoro-6-(1H-tetrazol-1-yl)phenyl)acryloyl)-5-(4-methyl-2-oxopiperazin-1-yl)-1,2,3,4-tetrahydroisoquinoline-1-carboxamido)benzoate, TFA Salt] | 5 to 10 nM | 
O=C(O)c1ccc(NC(=O)C2c3cccc(N4CCC(N5CCCC5=O)CC4)c3CCN2C(=O)C=Cc2c(-n3cnnn3)ccc(Cl)c2F)cc1 (stereo not shown) [Example 118] | 5 to 10 nM | 
O=C(O)c1ccc(NC(=O)C2c3cccc(N4CCC(N5CCCC5=O)CC4)c3CCN2C(=O)C=Cc2c(-n3cnnn3)ccc(Cl)c2F)cc1 (stereo not shown) [Example 119] |  | < 5 nM
CCOC(=O)c1ccc(NC(=O)C2c3cccc(N4CCC(C(=O)N5CCCC5)CC4)c3CCN2C(=O)/C=C/c2c(-n3cnnn3)ccc(Cl)c2F)cc1 (racemic) [Example 134] | < 5 nM | 
CC1(C)Cc2c(cccc2N2CCNCC2)C(C(=O)Nc2ccc(C(=O)O)cc2)N1C(=O)/C=C/c1c(-n2cnnn2)ccc(Cl)c1F (stereo not shown) [Example 78, (E)-4-(2-(3-(3-chloro-2-fluoro-6-(1H-tetrazol-1-yl)phenyl)acryloyl)-3,3-dimethyl-5-(piperazin-1-yl)-1,2,3,4-tetrahydroisoquinoline-1-carboxamido)benzoic acid, bis-TFA Salt] | < 5 nM | 
CC(C)(C)OC(=O)c1ccc(NC(=O)[C@@H]2c3cccc(N4CCCCC4=O)c3CCN2C(=O)/C=C/c2c(-n3cnnn3)ccc(Cl)c2F)cc1 [compound 37] |  | 86.5 nM
O=C(O)c1ccc(NC(=O)C2c3cccc(N4CCC(N5CCCC5)CC4)c3CCN2C(=O)C=Cc2c(-n3cnnn3)ccc(Cl)c2F)cc1 (stereo not shown) [Example 87] | < 5 nM | 
CN(C)C1CCN(c2cccc3c2CCN(C(=O)/C=C/c2c(F)cccc2C(F)(F)F)C3C(=O)Nc2ccc(C(=O)O)cc2)CC1 (racemic) [Example 224] | 5 to 10 nM | 
O=C(O)c1ccc(NC(=O)C2c3cccc(N4CCS(=O)(=O)CC4)c3CCN2C(=O)/C=C/c2c(C(F)(F)F)ccc(Cl)c2F)cc1 (racemic) [Example 225] | < 5 nM | 
COCCOC(=O)c1ccc(NC(=O)C2c3cccc(N4CCC(N5CCCC5)CC4)c3CCN2C(=O)C=Cc2c(C(C)=O)ccc(Cl)c2F)cc1 (stereo not shown) [Example 174] | < 5 nM | 
CC(=O)c1ccc(Cl)c(F)c1/C=C/C(=O)N1CCc2c(cccc2N2CCC(N3CCCC3)CC2)C1C(=O)Nc1ccc(C(=O)OC(C)(C)C)cc1 (racemic) [Example 153] | 5 to 10 nM | 
Cn1ncc2ccc(NC(=O)C3c4cccc(N5CCC(N6CCCC6)CC5)c4CCN3C(=O)/C=C/c3c(-n4cnnn4)ccc(Cl)c3F)cc21 (racemic) [Example 120] | < 5 nM | 
O=C(Nc1ccc2cnn(C(=O)OCc3ccccc3)c2c1)C1c2cccc(N3CCNCC3)c2CCN1C(=O)/C=C/c1c(-n2cnnn2)ccc(Cl)c1F (stereo not shown) [Example 9] | 5 to 10 nM | 
O=C(Nc1ccc2cn[nH]c2c1)C1c2cccc(N3CCOCC3=O)c2CCN1C(=O)/C=C/c1c(-n2cnnn2)ccc(Cl)c1F (racemic) [Example 47] | < 5 nM | 
CC(=O)c1ccc(Cl)c(F)c1C=CC(=O)N1CCc2c(cccc2N2CCC(N3CCCC3)CC2)C1C(=O)Nc1ccc(C(=O)O)cc1 (stereo not shown) [Example 168] | < 5 nM | 

SMILES | Ki [1] | Ki (substrate S-2366, Table 1)
CC(=O)N1CCN(c2cccc3c2CC(C)(C)N(C(=O)/C=C/c2c(-n4cnnn4)ccc(Cl)c2F)[C@@H]3C(=O)Nc2ccc(C(=O)O)cc2)CC1 [Example 204] | < 5 nM | 
CCOC(=O)c1ccc(NC(=O)C2c3cccc(N4CCC5(CCN(C)C5=O)CC4)c3CCN2C(=O)C=Cc2c(-n3cnnn3)ccc(Cl)c2F)cc1 (stereo not shown) [Example 110] | 5 to 10 nM | 
CC1(O)CCN(c2cccc3c2CCN(C(=O)C=Cc2c(-n4cnnn4)ccc(Cl)c2F)C3C(=O)Nc2ccc(C(=O)O)cc2)CC1 (stereo not shown) [Example 268] | < 5 nM | 
CN(C)[C@@H]1CCN(c2cccc3c2CCN(C(=O)/C=C/c2c(-n4cnnn4)ccc(Cl)c2F)[C@@H]3C(=O)Nc2ccc(C(=O)O)cc2)C1 [Example 210, 4-((S)-2-((E)-3-(3-Chloro-2-fluoro-6-(1H-tetrazol-1-yl)phenyl)acryloyl)-5-((R)-3-(dimethylamino)pyrrolidin-1-yl)-1,2,3,4-tetrahydroisoquinoline-1-carboxamido)benzoic acid, bis-TFA salt] | < 5 nM | 
CN(C)CCN1CCN(c2cccc3c2CCN(C(=O)C=Cc2c(-n4cnnn4)ccc(Cl)c2F)C3C(=O)Nc2ccc(C(=O)O)cc2)CCC1=O (stereo not shown) [Example 266] |  | < 5 nM
COc1ccc(Cl)c(F)c1/C=C/C(=O)N1CCc2c(cccc2N2CCC(N3CCCC3)CC2)C1C(=O)Nc1ccc(C(=O)O)cc1 (racemic) [Example 161] | < 5 nM | 
COC(=O)c1ccc(NC(=O)[C@@H]2c3cccc(N4CCC5(CC4)OCCO5)c3CCN2C(=O)/C=C/c2c(-n3cnnn3)ccc(Cl)c2F)cc1 [Example 144] | < 5 nM | 
CCOC(=O)c1ccc(NC(=O)C2c3cccc(N4CCC(N5CCCC5)CC4)c3CCN2C(=O)/C=C/c2c(-n3cnnn3)ccc(Cl)c2F)cc1 (racemic) [Example 83] | < 5 nM | 
CCOC(=O)CCNC(=O)N1CCN(c2cccc3c2CCN(C(=O)/C=C/c2cc(Cl)ccc2-n2cnnn2)C3C(=O)Nc2ccc(NC(=O)OC)cc2)CC1 (stereo not shown) [Example 23] | 5 to 10 nM | 
O=C(O)c1ccc(NC(=O)C2c3cccc(N4CCC(N5CCCC5)CC4)c3CCN2C(=O)/C=C/c2c(C(F)(F)F)ccc(Cl)c2F)cc1 (racemic) [Example 176] | < 5 nM | 
CCOC(=O)c1ccc(NC(=O)C2c3cccc(N4CCN(C)CC4)c3CCN2C(=O)C=Cc2c(-n3cnnn3)ccc(Cl)c2F)cc1 (stereo not shown) [compound 28] |  | 1220 nM
O=C(N[C@H]1CC[C@H](C(=O)O)CC1)C1c2cccc(N3CCC(N4CCCC4)CC3)c2CCN1C(=O)/C=C/c1c(-n2cnnn2)ccc(Cl)c1F (mixture of isomers) [Example 234] | 5 to 10 nM | 
CN(C)C(=O)c1ccc(NC(=O)C2c3cccc(N4CCNCC4)c3CCN2C(=O)/C=C/c2cc(Cl)c(F)cc2-n2cnnn2)cc1 (racemic) [Example 76] | 500 to 5000 nM | 
CCOC(=O)c1ccc(NC(=O)C2c3cccc(N4CCN(C(=O)OC(C)(C)C)CC4=O)c3CCN2C(=O)/C=C/c2c(-n3cnnn3)ccc(Cl)c2F)cc1 (racemic) [Example 56] | 5 to 10 nM | 
CC1(C)Cc2c(cccc2N2CCOCC2)[C@@H](C(=O)Nc2ccc(C(=O)O)cc2)N1C(=O)/C=C/c1c(-n2cnnn2)ccc(Cl)c1F [Example 199] | < 5 nM | 
CCOC(=O)c1ccc(NC(=O)[C@@H]2c3cccc(N4CCOCC4)c3CC(C)(C)N2C(=O)/C=C/c2c(-n3cnnn3)ccc(Cl)c2F)cc1 [Example 197] | 5 to 10 nM | 
O=C(Nc1ccc(Cl)cc1)C1c2cccc(N3CCC(N4CCCC4)CC3)c2CCN1C(=O)/C=C/c1c(-n2cnnn2)ccc(Cl)c1F (racemic) [Example 104] | < 5 nM | 
O=C(Nc1ccccc1)C1c2cccc(N3CCNCC3)c2CCN1C(=O)/C=C/c1c(-n2cnnn2)ccc(Cl)c1F (stereo not shown) [Example 8] | 5 to 10 nM | 
O=C(O)c1ccc(NC(=O)C2c3cccc(N4CCNCC4)c3CCN2C(=O)C=Cc2c(-n3cnnn3)ccc(Cl)c2F)cc1 (stereo not shown) [Example 13] |  | < 5 nM
CCOC(=O)c1ccc(NC(=O)C2c3cccc(N4CCOCC4)c3CCN2C(=O)C=Cc2c(-n3cnnn3)ccc(Cl)c2F)cc1 (stereo not shown) [Example 186] | 500 to 5000 nM | 
O=C(O)c1ccc(NC(=O)[C@@H]2c3cccc(N4CCC(O)CC4)c3CCN2C(=O)/C=C/c2c(-n3cnnn3)ccc(Cl)c2F)cc1 [Example 149] | < 5 nM | 
COCCCNC(=O)C1c2cccc(N3CCC(N4CCCC4)CC3)c2CCN1C(=O)/C=C/c1c(-n2cnnn2)ccc(Cl)c1F (racemic) [Example 229] | 100 to 500 nM | 
CC(=O)c1ccc(Cl)c(F)c1/C=C/C(=O)N1CCc2c(cccc2N2CCS(=O)(=O)CC2)[C@H]1C(=O)Nc1ccc(C(=O)O)cc1 [Example 217] | < 5 nM | 
